This note sets out measurements from US10202360B2 (CELGENE QUANTICEL RESEARCH, INC., priority 2016, dated 2019).

The target of the experiment is CREBBP (Homo sapiens (Human), UniProt Q92793). The experiment can be described thus: In vitro enzyme inhibition assay - CREBBP inhibition (AlphaScreen, biotinylated H4-tetraacetyl peptide). The experiment is classed as binding. Particulars: Table 28; AlphaScreen, H4-tetraacetyl peptide. The essentials: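 Displacement of 20 nM biotinylated tetraacetyl-H4 peptide from 50 nM E. coli-expressed His-CREBBP, measured by AlphaScreen after bead equilibration for 2 h.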
Sequence of CREBBP (Q92793 1081-1197): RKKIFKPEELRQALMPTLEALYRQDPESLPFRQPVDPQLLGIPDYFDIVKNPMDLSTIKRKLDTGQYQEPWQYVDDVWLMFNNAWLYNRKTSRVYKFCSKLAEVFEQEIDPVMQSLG
On the technique in general: In Alpha technology, singlet oxygen from a donor bead excites a nearby acceptor bead.

The IC50 is the point on the concentration scale where inhibition reaches its midpoint. Lower therefore signals greater potency in that assay.

As for `CCS(=O)(=O)Nc1nc(Oc2c(C)cccc2F)nc(-c2cc(C)c(=O)n(C)c2)c1C` [Example 159, Ethane-2-sulfonic acid [6-(1,5-dimethyl-6-oxo-1,6-dihydro-pyridin-3-yl)-2-(2-fluoro-6-methyl-phenoxy)-5-methyl-pyrimidin-4-yl]-amide], the IC50 was below 500 nM.

With `CCS(=O)(=O)Nc1nc(Oc2c(C)cccc2C)nc(-c2cc(C)c(=O)n(C)c2)c1C` [Example 160, Ethanesulfonic acid [6-(1,5-dimethyl-6-oxo-1,6-dihydro-pyridin-3-yl)-2-(2,6-dimethyl-phenoxy)-5-methyl-pyrimidin-4-yl]-amide], the IC50 is below 500 nM. Consider `CCCS(=O)(=O)Nc1nc(Oc2c(C)cccc2F)nc(-c2cc(C)c(=O)n(C)c2)c1C` [Example 161, Propane-1-sulfonic acid [6-(1,5-dimethyl-6-oxo-1,6-dihydro-pyridin-3-yl)-2-(2-fluoro-6-methyl-phenoxy)-5-methyl-pyrimidin-4-yl]-amide], for which the IC50 is below 500 nM. Turning to `Cc1cccc(F)c1Oc1nc(NS(=O)(=O)C(C)C)c(C)c(-c2cc(C)c(=O)n(C)c2)n1` [Example 162, Propane-2-sulfonic acid [6-(1,5-dimethyl-6-oxo-1,6-dihydro-pyridin-3-yl)-2-(2-fluoro-6-methyl-phenoxy)-5-methyl-pyrimidin-4-yl]-amide], the IC50 was below 500 nM. The molecule `Cc1cccc(C)c1Oc1nc(NS(=O)(=O)C(C)C)c(C)c(-c2cc(C)c(=O)n(C)c2)n1` [Example 163, Propane-2-sulfonic acid [6-(1,5-dimethyl-6-oxo-1,6-dihydro-pyridin-3-yl)-2-(2,6-dimethyl-phenoxy)-5-methyl-pyrimidin-4-yl]-amide] had an IC50 below 500 nM. In the case of `CCCS(=O)(=O)Nc1nc(Oc2c(C)cccc2C)nc(-c2cc(C)c(=O)n(C)c2)c1C` [Example 164, Propane-1-sulfonic acid [6-(1,5-dimethyl-6-oxo-1,6-dihydro-pyridin-3-yl)-2-(2,6-dimethyl-phenoxy)-5-methyl-pyrimidin-4-yl]-amide] it was below 500 nM. Turning to `Cc1c(NS(=O)(=O)C(C)C)nc(Oc2ccc(F)cc2F)nc1-c1cc(C)c(=O)n(C)c1` [Example 165, Propane-2-sulfonic acid [2-(2,4-difluoro-phenoxy)-6-(1,5-dimethyl-6-oxo-1,6-dihydro-pyridin-3-yl)-5-methyl-pyrimidin-4-yl]-amide], the IC50 is below 500 nM. In turn, `CCC(F)(F)S(=O)(=O)Nc1cc(-c2ccc(=O)n(C)c2)nc(Oc2c(C)cccc2F)n1` [Example 166, 1,1-Difluoro-propane-1-sulfonic acid [2-(2-fluoro-6-methyl-phenoxy)-6-(1-methyl-6-oxo-1,6-dihydro-pyridin-3-yl)-pyrimidin-4-yl]-amide] yielded an IC50 below 500 nM.

For `CCC(F)(F)S(=O)(=O)Nc1cc(-c2cc(C)c(=O)n(C)c2)nc(Oc2c(C)cccc2F)n1` [Example 167, 1,1-Difluoro-propane-1-sulfonic acid [6-(1,5-dimethyl-6-oxo-1,6-dihydro-pyridin-3-yl)-2-(2-fluoro-6-methyl-phenoxy)-pyrimidin-4-yl]-amide], the IC50 is below 500 nM.

For the molecule `CCC(F)S(=O)(=O)Nc1cc(-c2ccc(=O)n(C)c2)nc(Oc2c(C)cccc2F)n1` (centres unmarked) [Example 168, 1-Fluoro-propane-1-sulfonic acid [2-(2-fluoro-6-methyl-phenoxy)-6-(1-methyl-6-oxo-1,6-dihydro-pyridin-3-yl)-pyrimidin-4-yl]-amide], the IC50 is below 500 nM. `CCC(F)S(=O)(=O)Nc1cc(-c2cc(C)c(=O)n(C)c2)nc(Oc2c(C)cccc2F)n1` (centres unmarked) [Example 169, 1-Fluoro-propane-1-sulfonic acid [6-(1,5-dimethyl-6-oxo-1,6-dihydro-pyridin-3-yl)-2-(2-fluoro-6-methyl-phenoxy)-pyrimidin-4-yl]-amide] showed an IC50 below 500 nM. As for `CCC(F)(F)S(=O)(=O)Nc1cc(-c2ccc(=O)n(C)c2)nc(Oc2c(C)cccc2Cl)n1` [Example 170, 1,1-Difluoro-propane-1-sulfonic acid [2-(2-chloro-6-methyl-phenoxy)-6-(1-methyl-6-oxo-1,6-dihydro-pyridin-3-yl)-pyrimidin-4-yl]-amide], the IC50 is below 500 nM. Regarding `CCS(=O)(=O)Nc1nc(Oc2c(C)cccc2F)nc(-c2cc(C)c(=O)n(C)c2)n1` [Example 171, Ethanesulfonic acid [4-(1,5-dimethyl-6-oxo-1,6-dihydro-pyridin-3-yl)-6-(2-fluoro-6-methyl-phenoxy)-[1,3,5]triazin-2-yl]-amide], the IC50 is below 500 nM. On to `Cc1cccc(F)c1Oc1nc(NS(=O)(=O)C(C)C)nc(-c2cc(C)c(=O)n(C)c2)n1` [Example 172, Propane-2-sulfonic acid [4-(1,5-dimethyl-6-oxo-1,6-dihydro-pyridin-3-yl)-6-(2-fluoro-6-methyl-phenoxy)-[1,3,5]triazin-2-yl]-amide], for which the IC50 is below 500 nM.

`CCCS(=O)(=O)Nc1nc(Oc2c(C)cccc2F)nc(-c2cc(C)c(=O)n(C)c2)n1` [Example 173, Propane-1-sulfonic acid [4-(1,5-dimethyl-6-oxo-1,6-dihydro-pyridin-3-yl)-6-(2-fluoro-6-methyl-phenoxy)-[1,3,5]triazin-2-yl]-amide] showed an IC50 below 500 nM. Turning to `CCCCS(=O)(=O)Nc1nc(Oc2c(C)cccc2F)nc(-c2cc(C)c(=O)n(C)c2)n1` [Example 174, Butane-1-sulfonic acid [4-(1,5-dimethyl-6-oxo-1,6-dihydro-pyridin-3-yl)-6-(2-fluoro-6-methyl-phenoxy)-[1,3,5]triazin-2-]-amide], the IC50 is below 500 nM.

`CCS(=O)(=O)Nc1nc(Oc2c(C)cccc2F)nc(-c2ccc(=O)n(C)c2)n1` [Example 175, Ethanesulfonic acid [4-(2-fluoro-6-methyl-phenxoy)-6-(1-methyl-6-oxo-1,6-dihydro-pyridin-3-yl)-[1,3,5]triazin-2-yl]-amide] yielded an IC50 below 500 nM. `Cc1cccc(F)c1Oc1nc(NS(=O)(=O)C(C)C)nc(-c2ccc(=O)n(C)c2)n1` [Example 176, Propane-2-sulfonic acid [4-(2-fluoro-6-methyl-phenoxy)-6-(1-methyl-6-oxo-1,6-dihydro-pyridin-3-yl)-[1,3,5]triazin-2-yl]-amide] showed an IC50 below 500 nM. As to `CCCS(=O)(=O)Nc1nc(Oc2c(C)cccc2F)nc(-c2ccc(=O)n(C)c2)n1` [Example 177, Propane-1-sulfonic acid [4-(2-fluoro-6-methyl-phenoxy)-6-(1-methyl-6-oxo-1,6-dihdyro-pyridin-3-yl)-[1,3,5]triazin-2-yl]-amide], the IC50 was below 500 nM.

Molecule `CCCCS(=O)(=O)Nc1nc(Oc2c(C)cccc2F)nc(-c2ccc(=O)n(C)c2)n1` [Example 178, Butane-1-sulfonic acid [4-(2-fluoro-6-methyl-phenoxy)-6-(1-methyl-6-oxo-1,6-dihydro-pyridin-3-yl)-[1,3,5]triazin-2-yl]-amide] had an IC50 below 500 nM. Regarding `CCS(=O)(=O)Nc1nc(Oc2c(C)cccc2Cl)nc(-c2ccc(=O)n(C)c2)n1` [Example 179, Ethanesulfonic acid [4-(2-chloro-6-methyl-phenxoy)-6-(1-methyl-6-oxo-1,6-dihydro-pyridin-3-yl)-[1,3,5]triazin-2-yl]-amide], the IC50 was below 500 nM. In the case of `Cc1cccc(Cl)c1Oc1nc(NS(=O)(=O)C(C)C)nc(-c2ccc(=O)n(C)c2)n1` [Example 180, Propane-2-sulfonic acid [4-(2-chloro-6-methyl-phenoxy)-6-(1-methyl-6-oxo-1,6-dihydro-pyridin-3-yl)-[1,3,5]triazin-2-yl]-amide] it was below 500 nM. Then `CCCS(=O)(=O)Nc1nc(Oc2c(F)cccc2Cl)nc(-c2ccc(=O)n(C)c2)n1` [Example 181, Propane-1-sulfonic acid [4-(2-chloro-6-fluoro-phenoxy)-6-(1-methyl-6-oxo-1,6-dihydro-pyridin-3-yl)-[1,3,5]triazin-2-yl]-amide], with below 500 nM. As to `CCCCS(=O)(=O)Nc1nc(Oc2c(F)cccc2Cl)nc(-c2ccc(=O)n(C)c2)n1` [Example 182, Butane-1-sulfonic acid [4-(2-chloro-6-fluoro-phenoxy)-6-(1-methyl-6-oxo-1,6-dihydro-pyridin-3-yl)-[1,3,5]triazin-2-yl]-amide], the IC50 is below 500 nM.

`Cc1cccc(F)c1Oc1nc(NS(=O)(=O)CC(C)C)nc(-c2cc(C)c(=O)n(C)c2)n1` [Example 183, 2-Methyl-propane-1-sulfonic acid [4-(1,5-dimethyl-6-oxo-1,6-dihydro-pyridin-3-yl)-6-(2-fluoro-6-methyl-phenoxy)-[1,3,5]triazin-2-yl]-amide]: the IC50 was below 500 nM. On to `Cc1cccc(F)c1Oc1nc(NS(=O)(=O)C2CCCC2)nc(-c2cc(C)c(=O)n(C)c2)n1` [Example 184, Cyclopentanesulfonic acid [4-(1,5-dimethyl-6-oxo-1,6-dihydro-pyridin-3-yl)-6-(2-fluoro-6-methyl-phenoxy)-[1,3,5]triazin-2-yl]-amide], for which the IC50 was below 500 nM. `CCCCCS(=O)(=O)Nc1nc(Oc2c(C)cccc2F)nc(-c2cc(C)c(=O)n(C)c2)n1` [Example 185, Pentane-1-sulfonic acid [4-(1,5-dimethyl-6-oxo-1,6-dihydro-pyridin-3-yl)-6-(2-fluoro-6-methyl-phenoxy)-[1,3,5]triazin-2-yl]-amide]: the IC50 was below 500 nM.

Turning to `Cc1cccc(F)c1Oc1nc(NS(=O)(=O)CCC(C)C)nc(-c2cc(C)c(=O)n(C)c2)n1` [Example 186, 3-Methyl-butane-1-sulfonic acid [4-(1,5-dimethyl-6-oxo-1,6-dihydro-pyridin-3-yl)-6-(2-fluoro-6-methyl-phenoxy)-[1,3,5]triazin-2-yl]-amide], the half-maximal inhibitory concentration (IC50) was below 500 nM. Regarding `CCCCS(=O)(=O)Nc1nc(Oc2c(C)cccc2Cl)nc(-c2cc(C)c(=O)n(C)c2)n1` [Example 188, Butane-1-sulfonic acid [4-(2-chloro-6-methyl-phenoxy)-6-(1,5-dimethyl-6-oxo-1,6-dihydro-pyridin-3-yl)-[1,3,5]triazin-2-yl]-amide], the IC50 is below 500 nM.
